Structures can show the parent of a compound that is named as a salt. Where two headings read alike, the source gives them in different places.
Tests used:
[1] = system: male mice (CD1 Charles RAivers); assay: Variation of the body temperature (duration of action); assay type: in vivo
Protocol: (§1) The test is carried out on male mice (CD1 Charles RAivers) weighing 25-30 g, having fasted for 6 hours.
The temperature of the body is noted by means of a thermocouple inserted about 1.5 cm in the rectum and connected to an electric temperature recorder. […]
The duration of action of the products is determined, using the doses able to reduce the temperature by 1° to 1.5° C.

[2] = Solubility; assay type: physicochemical; conditions: for Solubility in water: H2O
[3] = Diarrhoeic activity; set-up: species or system mice; conditions: mouse, in vivo; oral route; dose which causes diarrhoea in 50% of the animals; read-out: DE50 (the source's name)
Protocol: The test is carried out on male mice (CD1 Charles Rivers) weighing […], after fasting for 6 hours. The product dissolved at 5% in methocel is administered by oral route by means of an oesophage probe.
Control animals receive only the excipient.
After treatment, the animals are placed separately in cages of which the base is covered with blotting paper, and they are put under observation for 30, 60, 120 and 180 minutes.
The sheets of absorbent paper are changed after each observation.
The consistency of the feces is evaluated according to the method of Randall and Baruth (Arch. Int. Pharmacodyn. 220, 94, 1976) according to the following scale of values.
1: feces slightly soft, with or without a damp halo
2: feces slightly soft, with a well defined circle of humidity.
3: feces soft with a large circle of humidity.
4: feces without consistency with a very large circle of humidity.
For each product, the dose is noted which causes diarrhoea in 50% of the animals according to the method of Miller and Tainter (Proc. Soc. Exp. Biol. Med., 57, 261, 1944).

[4] = system: ileum isolated from guinea-pig; assay: Test of ileum isolated from guinea-pig, agonist (contracting) activity; conditions: Cavia porcellus; negative logarithm of the dose which produces 50% of the maximum effect; read-out: pD2 (converted)
Protocol: Pieces of ileum are removed from guinea-pigs killed by decapitation. The isolated ileum is placed in 10 cm^3 of Tyrode solution at 37° C. and aerated with a mixture of oxygen (95%) and carbon dioxide gas (5%). The contractions due to the products are registered by means of a detector connected to a polygraph. The products to be tested are added at concentrations between 1.10^-3 M and 1.10^-8 M/l.
The products presenting a contracting effect are tested vis-a-vis atropine and hexamethonium in order to establish if the activity is of "muscarine" or "nicotine" type.
The agonist activity is expressed in pD2 (negative logarithm of the dose which produces 50% of the maximum effect).

[5] = system: male mice (CD1 Charles RAivers); assay: Hypothermic activity; assay type: in vivo; conditions: Mus musculus, read-out: Effective dose (-1° C.)
Protocol: as §1
The temperature of the body is noted by means of a thermocouple inserted about 1.5 cm in the rectum and connected to an electric temperature recorder.
The products are administered by oral or sub-cutaneous route and the temperatures are noted at the instant 0 and at 30 minutes, 1 hour, 2 hours and 2 and a half hours after treatment.
The degree of hypothermia is evaluated as the difference between the treated animals and the controls, and the dose necessary to reduce the body temperature by 1° C. is noted.

[6] = Acute toxicity, oral; set-up: species or system mice; conditions: mouse, in vivo, mortality during 7 days
Protocol: The test was carried out on male mice (CD1 Charles Rivers), of 22 to 24 g, having fasted for 16 hours. […] The mortality is noted during the 7 days following the treatment.

[7] = system: central cholinergic system; conditions: cited from earlier work
[8] = system: patients having a memory defect; conditions: injected by intravenous route; cited from earlier work

Structure (SMILES): C#CCON=CC1=CCCN(O)C1 [Example 4, Hydrochloride of the propargyl ether of 1-hydroxy-1,2,5,6-tetrahydropyridin-3-carboxaldehyde oxime]
- Variations of the body temperature ([1]; os, 0.75 mg/kg, 30 min): -1.6 °C
- Variations of the body temperature ([1]; os, 0.75 mg/kg, 60 min): -1.0 °C
- Variations of the body temperature ([1]; os, 0.75 mg/kg, 180 min): -0.1 °C
- Variations of the body temperature ([1]; sc, 0.75 mg/kg, 30 min): -1.4 °C
- Variations of the body temperature ([1]; sc, 0.75 mg/kg, 60 min): -1.1 °C
- Variations of the body temperature ([1]; sc, 0.75 mg/kg, 120 min): -0.1 °C
- Solubility in 2N HCl [2]: Soluble
- Solubility in 2N NaOH [2]: Soluble
- Solubility in water [2]: Soluble
- ED50 [3]: 0.9 mg/kg
- EC50 [4]: 5.75 µM
- ED (-1 C) ([5]; O.R. (oral route)): 0.48 mg/kg
- ED (-1 C) ([5]; SC.R (sub-cutaneous route)): 0.49 mg/kg
- LD50 at 168 h [6]: 80 mg/kg

Structure (SMILES): CON=CC1=CCCN(OC(C)=O)C1 [Example 3, Hydrochloride of the methyl ether of 1-acetoxy-1,2,5,6-tetrahydropyridin-3-carboxaldehyde oxime]
- Variations of the body temperature ([1]; os, 0.25 mg/kg, 30 min): -1.2 °C
- Variations of the body temperature ([1]; os, 0.25 mg/kg, 60 min): -0.7 °C
- Variations of the body temperature ([1]; os, 0.25 mg/kg, 120 min): +0.1 °C
- Variations of the body temperature ([1]; os, 0.25 mg/kg, 180 min): +0.1 °C
- Variations of the body temperature ([1]; sc, 0.25 mg/kg, 30 min): -1.2 °C
- Variations of the body temperature ([1]; sc, 0.25 mg/kg, 60 min): -0.8 °C
- Variations of the body temperature ([1]; sc, 0.25 mg/kg, 120 min): +0.1 °C
- Variations of the body temperature ([1]; sc, 0.25 mg/kg, 180 min): +0.1 °C
- Solubility in 2N HCl [2]: soluble
- Solubility in 2N NaOH [2]: insoluble
- Solubility in water [2]: insoluble
- ED50 [3]: 0.5 mg/kg
- EC50 [4]: 12.6 µM
- ED (-1 C) ([5]; O.R. (oral route)): 0.22 mg/kg
- ED (-1 C) ([5]; SC.R (sub-cutaneous route)): 0.2 mg/kg
- LD50 at 168 h [6]: 100 mg/kg

Structure (SMILES): COC(=O)C1=CCCN(C)C1 [arecoline]
- duration of action ([7]; in vivo): short duration of action
- activity by oral route ([7]; oral route): very weak activity
- ED50 [3]: 35 mg/kg
- EC50 [4]: 0.331 µM
- effect on patients having a memory defect [8]: positive effect
